Reference: patent publication US20230279036A1, “Salts of Remdesivir” (Apotex Inc., priority 2020, published 2023)

Assay: PXRD study of crystalline form stability in a 40° C./75% RH stability chamber
Type: physicochemical
Conditions: capped and uncapped samples, at least one year
Method: Remdesivir napsylate Form APO-I can be characterized by a PXRD diffractogram comprising, among other peaks, characteristic peaks, expressed in degrees 2θ (±0.2°), at 5.1°, 6.5° and 13.1°. Preferably, the PXRD diffractogram further comprises at least three peaks, expressed in degrees 2θ (±0.2°), selected from the group consisting of 4.5°, 9.0°, 10.0°, 11.5°, 13.6°, 15.3°, 16.4°, 17.2°, 20.2° and 24.3°. More preferably, the PXRD diffractogram further comprises peaks, expressed in degrees 2θ (±0.2°), at 4.5°, 9.0°, 10.0°, 11.5°, 13.6°, 15.3°, 16.4°, 17.2°, 20.2° and 24.3°.
Remdesivir tosylate Form APO-I can be characterized by a PXRD diffractogram comprising, among other peaks, characteristic peaks, expressed in degrees […] (±0.2°), at 5.5°, 7.7° and 13.1°. Preferably, the PXRD diffractogram further comprises at least three peaks, expressed in degrees 2θ (±0.2°), selected from the group consisting of 4.5°, 6.5°, 9.1°, 9.8°, 16.0°, 16.6°, 17.1°, 17.5°, 18.4° and 20.0°. More preferably, the PXRD diffractogram further comprises peaks, expressed in degrees 2θ (±0.2°), at 4.5°, 6.5°, 9.1°, 9.8°, 16.0°, 16.6°, 17.1°, 17.5°, 18.4° and 20.0°.
The PXRD diffractogram was recorded on a Bruker D8 Discover powder X-ray diffractometer (Bruker-AXS, Karlsruhe, Germany). […] Raw data was evaluated using the program EVA (Bruker-AXS, Karlsruhe, Germany).

Structure (SMILES) | change in the crystalline form by PXRD
CCC(CC)COC(=O)C(C)NP(=O)(OCC1OC(C#N)(c2ccc3c(N)ncnn23)C(O)C1O)Oc1ccccc1.O=S(=O)(O)c1ccc2ccccc2c1 (centres unmarked) [remdesivir napsylate Form APO-I, remdesivir naphthalene-2-sulfonate Form APO-I] | no change in the crystalline form occurred
CCC(CC)COC(=O)[C@H](C)N[P@](=O)(OC[C@H]1O[C@@](C#N)(c2ccc3c(N)ncnn23)[C@H](O)[C@@H]1O)Oc1ccccc1.Cc1ccc(S(=O)(=O)O)cc1 [remdesivir tosylate Form APO-1, remdesivir tosylate Form APO-I] | no change in the crystalline form occurred
